Assay results from patent US11318137B2, “Quinazoline compounds as modulators of Ras signaling” (VANDERBILT UNIVERSITY, priority 2017, dated 2022).
pEC50: −log10 of the molar value.

Each compound was assayed against T1, SOS-mediated nucleotide exchange on Ras (Homo sapiens, UniProt Q07889) (assay: SOS-mediated nucleotide exchange on Ras (BODIPY-GDP fluorescence)). Details: Ras loaded with BODIPY-GDP, GTP and SOS added; EC50 from derived exchange rates.
T1 sequence (Q07889 1-1333): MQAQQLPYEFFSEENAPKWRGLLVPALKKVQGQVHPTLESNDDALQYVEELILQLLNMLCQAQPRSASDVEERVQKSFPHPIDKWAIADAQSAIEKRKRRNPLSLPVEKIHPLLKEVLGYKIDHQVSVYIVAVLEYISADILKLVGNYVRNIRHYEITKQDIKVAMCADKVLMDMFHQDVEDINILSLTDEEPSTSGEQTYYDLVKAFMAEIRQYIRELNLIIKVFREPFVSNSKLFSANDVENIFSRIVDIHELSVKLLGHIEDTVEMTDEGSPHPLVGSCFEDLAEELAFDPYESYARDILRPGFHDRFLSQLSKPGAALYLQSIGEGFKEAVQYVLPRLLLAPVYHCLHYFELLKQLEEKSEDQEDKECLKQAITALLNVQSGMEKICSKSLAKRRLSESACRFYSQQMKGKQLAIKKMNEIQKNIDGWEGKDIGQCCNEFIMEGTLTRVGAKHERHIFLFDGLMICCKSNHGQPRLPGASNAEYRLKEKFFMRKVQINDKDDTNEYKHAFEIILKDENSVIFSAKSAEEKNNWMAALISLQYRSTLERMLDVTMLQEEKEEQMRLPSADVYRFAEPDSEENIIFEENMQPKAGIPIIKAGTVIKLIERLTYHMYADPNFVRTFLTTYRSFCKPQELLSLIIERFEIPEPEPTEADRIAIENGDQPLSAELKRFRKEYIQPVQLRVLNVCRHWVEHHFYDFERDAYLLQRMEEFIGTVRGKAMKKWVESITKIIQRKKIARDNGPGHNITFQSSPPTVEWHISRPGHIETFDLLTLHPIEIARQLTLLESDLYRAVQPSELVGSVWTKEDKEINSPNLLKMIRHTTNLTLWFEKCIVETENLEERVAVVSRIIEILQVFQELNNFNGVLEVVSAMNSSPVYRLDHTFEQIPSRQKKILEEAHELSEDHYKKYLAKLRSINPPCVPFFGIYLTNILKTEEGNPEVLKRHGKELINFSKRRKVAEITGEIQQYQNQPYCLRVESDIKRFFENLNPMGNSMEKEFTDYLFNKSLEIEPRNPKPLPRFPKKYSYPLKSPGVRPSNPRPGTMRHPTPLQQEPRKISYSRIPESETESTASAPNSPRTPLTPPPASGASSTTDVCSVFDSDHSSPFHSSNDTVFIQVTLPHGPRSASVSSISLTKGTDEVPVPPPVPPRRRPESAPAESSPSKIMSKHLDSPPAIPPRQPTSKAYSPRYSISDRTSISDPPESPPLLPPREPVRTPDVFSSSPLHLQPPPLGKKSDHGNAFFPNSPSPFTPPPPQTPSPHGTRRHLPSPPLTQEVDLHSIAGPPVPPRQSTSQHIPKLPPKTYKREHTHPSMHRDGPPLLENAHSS
Type: biochemical
Description: A. SOS-Mediated Nucleotide Exchange on Ras
Compounds of the present invention were tested for their ability to modify the rate at which Ras exchanges a labeled nucleotide guanosine diphosphate (GDP) analog for guanosine triphosphate (GTP). Briefly, test compounds, then GTP and the Ras GEF SOS (Son of Sevenless) are added to a buffered solution containing Ras protein loaded with BODIPY-GDP. Changes in fluorescence indicating exchange of the labeled GDP for GTP are monitored over time. Raw fluorescence data was fit to a single exponential decay function and derived rates were plotted as mean values. EC50 values were calculated by plotting mean derived rates as a function of compound concentration and fit using a four-parameter dose-response curve. Full assay details are disclosed in: Burns, M. C.; Sun, Q.; Daniels, R. N.; Camper, D. V.; Kennedy, J. P.; Phan, J.; Olejniczak, E. O.; Lee, T.; Waterson, A. G.; Rossanese, O. W.; Fesik, S. W. “Approach for targeting Ras with small molecules that activate SOS-mediated nucleotide exchange” Proc. Natl. Acad. Sci. 2014; 11(9): 3401-3406. PMCID: PMC3948241.

| SMILES | pEC50 |
| --- | --- |
| C[C@@H](Nc1nc(Nc2cc(F)c(F)c(F)c2)nc2ccccc12)C1CC1 [Example 6, (R)—N^4-(1-cyclopropylethyl)-N^2-(3,4,5-trifluorophenyl)quinazoline-2,4-diamine] | 4.52 to 5.30 |
| FC(F)(F)Oc1cccc(Nc2nc(NCc3cccs3)c3ccccc3n2)c1 [Example 7, N^4-(thiophen-2-ylmethyl)-N^2-(3-(trifluoromethoxy)phenyl)quinazoline-2,4-diamine] | 4.52 to 5.30 |
| FC(F)(F)c1cccc(Nc2nc(NCc3ccco3)c3ccccc3n2)c1 [Example 8, N^44-(furan-2-ylmethyl)-N^2-(3-(trifluoromethyl)phenyl)quinazoline-2,4-diamine] | 4.52 to 5.30 |
| c1coc(CNc2nc(Nc3ccc4c(c3)CCC4)nc3ccccc23)c1 [Example 10, N^2-(2,3-dihydro-1H-inden-5-yl)-N^4-(furan-2-ylmethyl)quinazoline-2,4-diamine] | 4.52 to 5.30 |
| c1coc(CNc2nc(Nc3ccc4[nH]nnc4c3)nc3ccccc23)c1 [Example 11, N^2-(1H-benzo [d][1,2,3]triazol-5-yl)-N^4-(furan-2-ylmethyl)quinazoline-2,4-diamine] | < 4.52 |
| COc1cccc(CNc2nc(NCc3ccco3)c3ccccc3n2)c1 [Example 12, N^4-(furan-2-ylmethyl)-N^2-(3-methoxybenzyl)quinazoline-2,4-diamine] | 4.52 to 5.30 |
| Oc1cccc(Nc2nc(NCc3cccs3)c3ccccc3n2)c1 [Example 13, 3-((4-((thiophen-2-ylmethyl)amino)quinazolin-2-yl)amino)phenol] | 4.52 to 5.30 |
| Cc1ccc(CNc2nc(Nc3ccc(F)c(Cl)c3)nc3ccccc23)o1 [Example 15, N^2-(3-chloro-4-fluorophenyl)-N^4-((5-methylfuran-2-yl)methyl)quinazoline-2,4-diamine] | 4.52 to 5.30 |
| CCC(C)CNc1nc(Nc2ccc(F)c(Cl)c2)nc2ccccc12 (stereo not shown) [Example 16, N^2-(3-chloro-4-fluorophenyl)-N^4-(2-methylbutyl)quinazoline-2,4-diamine] | 4.52 to 5.30 |
| c1ccc2c(NCC3CC3)nc(NCC3CCC3)nc2c1 [Example 17, N^2-(cyclobutylmethyl)-N^4-(cyclopropylmethyl)quinazoline-2,4-diamine] | 4.52 to 5.30 |
| c1ccc2c(NCC3CC3)nc(NCC3CCCO3)nc2c1 (stereo not shown) [Example 18, N^4-(cyclopropylmethyl)-N^2-((THF-2-yl)methyl)quinazoline-2,4-diamine] | < 4.52 |
| CC(C)[C@@H](C)Nc1nc(Nc2cc(F)cc(F)c2)nc2ccccc12 [Example 20, (R)—N^2-(3,5-difluorophenyl)-N^4-(3-methylbutan-2-yl)quinazoline-2,4-diamine] | 4.52 to 5.30 |
| C[C@@H](Nc1nc(NCc2cccc(Cl)c2F)nc2ccccc12)C1CC1 [Example 25, (R)—N^2-(3-chloro-2-fluorobenzyl)-N^4-(1-cyclopropylethyl)quinazoline-2,4-diamine] | 5.30 to 6.00 |
| Cc1cccc(CNc2nc(N[C@H](C)C3CC3)c3ccccc3n2)c1F [Example 26, (R)—N^4-(1-cyclopropylethyl)-N^2-(2-fluoro-3-methylbenzyl)quinazoline-2,4-diamine] | 5.30 to 6.00 |
| C[C@@H](Nc1nc(NCc2cccc(C(F)(F)F)c2)nc2ccccc12)C1CC1 [Example 28, (R)—N^4-(1-cyclopropylethyl)-N^2-(3-(trifluoromethyl)benzyl)quinazoline-2,4-diamine] | 4.52 to 5.30 |
| C[C@@H](Nc1nc(NCc2ccccc2F)nc2ccccc12)C1CC1 [Example 29, (R)—N^4-(1-cyclopropylethyl)-N^2-(2-fluorobenzyl)quinazoline-2,4-diamine] | 4.52 to 5.30 |

| SMILES | pEC50 |
| --- | --- |
| C[C@@H](Nc1nc(Nc2ccc(F)c(Cl)c2F)nc2ccccc12)C1CC1 [Example 30] | 4.52 to 5.30 |
| CCC(CC)CNc1nc(Nc2ccc(F)c(Cl)c2)nc2ccccc12 [Example 31, N^2-(3-chloro-4-fluorophenyl)-N^4-(2-ethylbutyl)quinazoline-2,4-diamine] | 5.30 to 6.00 |
| c1ccc(CNc2nc(Nc3ccccc3)nc3ccccc23)cc1 [Example 33, N^4-benzyl-N^2-phenylquinazoline-2,4-diamine] | 4.52 to 5.30 |
| C[C@@H](Nc1nc(Nc2cc(F)cc(F)c2)nc2ccccc12)C(C)(C)C [Example 41, (R)—N^2-(3,5-difluorophenyl)-N^4-(3,3-dimethylbutan-2-yl)quinazoline-2,4-diamine] | 5.30 to 6.00 |
| C[C@@H](Nc1nc(Nc2ccc(F)c(Cl)c2)nc2ccccc12)C1CCCC1 [Example 43, (R)—N^2-(3-chloro-4-fluorophenyl)-N^4-(1-cyclopentylethyl)quinazoline-2,4-diamine] | 5.30 to 6.00 |
| CC[C@@H](Nc1nc(Nc2ccc(F)c(Cl)c2)nc2ccccc12)C1CCCC1 [Example 44, (R)—N^2-(3-chloro-4-fluorophenyl)-N^4-(1-cyclopentylpropyl)quinazoline-2,4-diamine] | < 4.52 |
| Fc1ccc(Nc2nc(N[C@@H](C3CC3)C(F)(F)F)c3ccccc3n2)cc1Cl [Example 45, (S)—N^2-(3-chloro-4-fluorophenyl)-N^4-(1-cyclopropyl-2,2,2-trifluoroethyl)quinazoline-2,4-diamine] | < 4.52 |
| C[C@@H](Nc1nc(Nc2ccc(F)c(Cl)c2)nc2c(Br)cccc12)C1CC1 [Example 46, (R)-8-bromo-N^2-(3-chloro-4-fluorophenyl)-N-(1-cyclopropylethyl)quinazoline-2,4-diamine] | < 4.52 |
| C[C@@H](Nc1nc(Nc2ccc(F)c(Cl)c2)nc2c(C3CNC3)cccc12)C1CC1 [Example 61, (R)-8-(azetidin-3-yl)-N^2-(3-chloro-4-fluorophenyl)-N^4-(1-cyclopropylethyl)quinazoline-2,4-diamine] | 5.30 to 6.00 |
| C[C@@H](Nc1nc(Nc2ccc(F)c(Cl)c2)nc2c(C3=CCNCC3)cccc12)C(C)(C)C [Example 79, (R)—N^2-(3-chloro-4-fluorophenyl)-N^4-(3,3-dimethylbutan-2-yl)-8-(1,2,3,6-tetrahydropyridin-4-yl)quinazoline-2,4-diamine] | 4.52 to 5.30 |
| Cc1cc(F)cc(Nc2nc(N[C@H](C)C(C)(C)C)c3cccc(C4=CCNCC4)c3n2)c1 [Example 80, (R)—N^4-(3,3-dimethylbutan-2-yl)-N^2-(3-fluoro-5-methylphenyl)-8-(1,2,3,6-tetrahydropyridin-4-yl)quinazoline-2,4-diamine] | 5.30 to 6.00 |
| Cc1cc(F)cc(Nc2nc(N[C@H](C)C(C)(C)C)c3cccc(CCN)c3n2)c1 [Example 83, (R)-8-(2-aminoethyl)-N^4-(3,3-dimethylbutan-2-yl)-N^2-(3-fluoro-5-methylphenyl)quinazoline-2,4-diamine] | 5.30 to 6.00 |
| C[C@@H](Nc1nc(Nc2ccc(F)c(Cl)c2)nc2c(C3=CCNCC3)cccc12)c1cccs1 [Example 88, (R)—N^2-(3-chloro-4-fluorophenyl)-8-(1,2,3,6-tetrahydropyridin-4-yl)-N^4-(1-(thiophen-2-yl)ethyl)quinazoline-2,4-diamine] | 5.30 to 6.00 |
| C[C@@H](Nc1nc(NCC2CCCCC2)nc2c(CN)cccc12)c1cccs1 [Example 96, (R)-8-(aminomethyl)-N^2-(cyclohexylmethyl)-N^4-(1-(thiophen-2-yl)ethyl)quinazoline-2,4-diamine] | 5.30 to 6.00 |
| CCC(CC)CNc1nc(Nc2ccc(F)c(Cl)c2)nc2c(C#N)cccc12 [Example 99, 2-((3-chloro-4-fluorophenyl)amino)-4-((2-ethylbutyl)amino)quinazoline-8-carbonitrile] | 5.30 to 6.00 |
